Assay results: US20160158317A1, “Antimicrobial Peptide Variants and Polynucleotides Encoding Same” (Adenium Biotech A/S, priority 2010, published 2016)
Where a SMILES comes first, the peptide text is derived from it. Bridges are numbered along the chain shown (N, C = ends).

Assay: Determination of the protein binding (90% serum, 30 kDa filter, HPLC)
Assay type: in vitro ADME
Settings: serum
Description: Protein binding assays were performed as follows. The purified peptides were mixed with 90% serum and centrifuged through a 30 kDa filter. The ultra-filtrate and the non filtrated serum samples were quantified by HPLC measurements and the protein binding was subsequently calculated.

SMILES	fraction unbound
CC(C)[C@@H]1NC(=O)CNC(=O)[C@H](CC(N)=O)NC(=O)[C@H](CCCNC(=N)N)NC(=O)[C@H](Cc2ccc(O)cc2)NC(=O)[C@H](C(C)C)NC(=O)[C@@H]2CSSC[C@H](NC(=O)[C@H](CCCNC(=N)N)NC(=O)[C@H](CCCNC(=N)N)NC1=O)C(=O)N[C@@H](Cc1c[nH]cn1)C(=O)N[C@@H](CCCNC(=N)N)C(=O)N[C@@H](CCCNC(=N)N)C(=O)N[C@H](C(=O)N[C@@H](CC(N)=O)C(=O)O)CSSC[C@H](NC(=O)[C@H](Cc1ccccc1)NC(=O)CN)C(=O)N[C@@H](Cc1c[nH]c3ccccc13)C(=O)N[C@@H](CC(N)=O)C(=O)N[C@@H](C(C)C)C(=O)N2 [compound 252] (H-GFCWNVCVYRNGVRRCHRRCN-OH; disulfide 3-20, 7-16 (inferred); N-terminus and C-terminus assumed)	0.24
CC(C)[C@@H]1NC(=O)CNC(=O)[C@H](CC(N)=O)NC(=O)[C@H](CCCNC(=N)N)NC(=O)[C@H](Cc2ccc(O)cc2)NC(=O)[C@H](C(C)C)NC(=O)[C@@H]2CSSC[C@H](NC(=O)[C@H](Cc3c[nH]c4ccccc34)NC(=O)[C@H](CCCNC(=N)N)NC1=O)C(=O)N[C@@H](Cc1c[nH]cn1)C(=O)N[C@@H](CCCNC(=N)N)C(=O)N[C@@H](CCCNC(=N)N)C(=O)N[C@H](C(=O)N[C@@H](CC(N)=O)C(=O)O)CSSC[C@H](NC(=O)[C@H](Cc1ccccc1)NC(=O)CN)C(=O)N[C@@H](Cc1c[nH]c3ccccc13)C(=O)N[C@@H](CC(N)=O)C(=O)N[C@@H](C(C)C)C(=O)N2 [compound 253] (H-GFCWNVCVYRNGVRWCHRRCN-OH; disulfide 3-20, 7-16 (inferred); N-terminus and C-terminus assumed)	0.06
CC(C)[C@@H]1NC(=O)CNC(=O)[C@H](CC(N)=O)NC(=O)[C@H](CCCNC(=N)N)NC(=O)[C@H](Cc2ccc(O)cc2)NC(=O)[C@H](C(C)C)NC(=O)[C@@H]2CSSC[C@H](NC(=O)[C@H](Cc3ccc(O)cc3)NC(=O)[C@H](CCCNC(=N)N)NC1=O)C(=O)N[C@@H](Cc1c[nH]cn1)C(=O)N[C@@H](CCCNC(=N)N)C(=O)N[C@@H](CCCNC(=N)N)C(=O)N[C@H](C(=O)N[C@@H](CC(N)=O)C(=O)O)CSSC[C@H](NC(=O)[C@H](Cc1ccccc1)NC(=O)CN)C(=O)N[C@@H](Cc1c[nH]c3ccccc13)C(=O)N[C@@H](CC(N)=O)C(=O)N[C@@H](C(C)C)C(=O)N2 [compound 254] (H-GFCWNVCVYRNGVRYCHRRCN-OH; disulfide 3-20, 7-16 (inferred); N-terminus and C-terminus assumed)	0.23
CC(C)[C@@H]1NC(=O)CNC(=O)[C@H](CC(N)=O)NC(=O)[C@H](CCCNC(=N)N)NC(=O)[C@H](CCCCN)NC(=O)[C@H](C(C)C)NC(=O)[C@@H]2CSSC[C@H](NC(=O)[C@H](C(C)C)NC(=O)[C@H](CCCNC(=N)N)NC1=O)C(=O)N[C@@H](Cc1ccc(O)cc1)C(=O)N[C@@H](CCCNC(=N)N)C(=O)N[C@@H](CCCNC(=N)N)C(=O)N[C@H](C(=O)N[C@@H](CC(N)=O)C(=O)O)CSSC[C@H](NC(=O)[C@H](Cc1ccccc1)NC(=O)CN)C(=O)N[C@@H](Cc1c[nH]c3ccccc13)C(=O)N[C@@H](CC(N)=O)C(=O)N[C@@H](C)C(=O)N2 [compound 258] (H-GFCWNACVKRNGVRVCYRRCN-OH; disulfide 3-20, 7-16 (inferred); N-terminus and C-terminus assumed)	0.11
CC(C)[C@@H]1NC(=O)CNC(=O)[C@H](CC(N)=O)NC(=O)[C@H](CCCNC(=N)N)NC(=O)[C@H](Cc2ccc(O)cc2)NC(=O)[C@H](C(C)C)NC(=O)[C@@H]2CSSC[C@H](NC(=O)[C@H](C(C)C)NC(=O)[C@H](CCCNC(=N)N)NC1=O)C(=O)N[C@@H](Cc1c[nH]cn1)C(=O)N[C@@H](CCCNC(=N)N)C(=O)N[C@@H](CCCNC(=N)N)C(=O)N[C@H](C(=O)N[C@@H](CC(N)=O)C(=O)O)CSSC[C@H](NC(=O)[C@H](Cc1ccccc1)NC(=O)CN)C(=O)N[C@@H](Cc1c[nH]c3ccccc13)C(=O)N[C@@H](CC(N)=O)C(=O)N[C@@H](Cc1ccccc1)C(=O)N2 [compound 260] (H-GFCWNFCVYRNGVRVCHRRCN-OH; disulfide 3-20, 7-16 (inferred); N-terminus and C-terminus assumed)	0.16
CC[C@H](C)[C@@H]1NC(=O)[C@H](CC(N)=O)NC(=O)[C@H](Cc2c[nH]c3ccccc23)NC(=O)[C@@H](NC(=O)[C@H](Cc2ccccc2)NC(=O)CN)CSSC[C@@H](C(=O)N[C@@H](CC(N)=O)C(=O)O)NC(=O)[C@H](CCCNC(=N)N)NC(=O)[C@H](CCCNC(=N)N)NC(=O)[C@H](Cc2c[nH]cn2)NC(=O)[C@@H]2CSSC[C@H](NC1=O)C(=O)N[C@@H](C(C)C)C(=O)N[C@@H](Cc1ccc(O)cc1)C(=O)N[C@@H](CCCNC(=N)N)C(=O)N[C@@H](CC(N)=O)C(=O)NCC(=O)N[C@@H](C(C)C)C(=O)N[C@@H](CCCNC(=N)N)C(=O)N[C@@H](C(C)C)C(=O)N2 [compound 262] (H-GFCWNICVYRNGVRVCHRRCN-OH; disulfide 3-20, 7-16 (inferred); N-terminus and C-terminus assumed)	0.12
CC(C)C[C@@H]1NC(=O)[C@H](CC(N)=O)NC(=O)[C@H](Cc2c[nH]c3ccccc23)NC(=O)[C@@H](NC(=O)[C@H](Cc2ccccc2)NC(=O)CN)CSSC[C@@H](C(=O)N[C@@H](CC(N)=O)C(=O)O)NC(=O)[C@H](CCCNC(=N)N)NC(=O)[C@H](CCCNC(=N)N)NC(=O)[C@H](Cc2c[nH]cn2)NC(=O)[C@@H]2CSSC[C@H](NC1=O)C(=O)N[C@@H](C(C)C)C(=O)N[C@@H](Cc1ccc(O)cc1)C(=O)N[C@@H](CCCNC(=N)N)C(=O)N[C@@H](CC(N)=O)C(=O)NCC(=O)N[C@@H](C(C)C)C(=O)N[C@@H](CCCNC(=N)N)C(=O)N[C@@H](C(C)C)C(=O)N2 [compound 263] (H-GFCWNLCVYRNGVRVCHRRCN-OH; disulfide 3-20, 7-16 (inferred); N-terminus and C-terminus assumed)	0.2
CC(C)[C@@H]1NC(=O)CNC(=O)[C@H](CC(N)=O)NC(=O)[C@H](CCCNC(=N)N)NC(=O)[C@H](Cc2ccc(O)cc2)NC(=O)[C@H](C(C)C)NC(=O)[C@@H]2CSSC[C@H](NC(=O)[C@H](C(C)C)NC(=O)[C@H](CCCNC(=N)N)NC1=O)C(=O)N[C@@H](Cc1c[nH]cn1)C(=O)N[C@@H](CCCNC(=N)N)C(=O)N[C@@H](CCCNC(=N)N)C(=O)N[C@H](C(=O)N[C@@H](CC(N)=O)C(=O)O)CSSC[C@H](NC(=O)[C@H](Cc1ccccc1)NC(=O)CN)C(=O)N[C@@H](Cc1c[nH]c3ccccc13)C(=O)N[C@@H](CC(N)=O)C(=O)N[C@@H](Cc1c[nH]c3ccccc13)C(=O)N2 [compound 267] (H-GFCWNWCVYRNGVRVCHRRCN-OH; disulfide 3-20, 7-16 (inferred); N-terminus and C-terminus assumed)	0.15
CC(C)[C@@H]1NC(=O)CNC(=O)[C@H](CC(N)=O)NC(=O)[C@H](CCCNC(=N)N)NC(=O)[C@H](Cc2ccc(O)cc2)NC(=O)[C@H](Cc2ccccc2)NC(=O)[C@@H]2CSSC[C@H](NC(=O)[C@H](C(C)C)NC(=O)[C@H](CCCNC(=N)N)NC1=O)C(=O)N[C@@H](Cc1c[nH]cn1)C(=O)N[C@@H](CCCNC(=N)N)C(=O)N[C@@H](CCCNC(=N)N)C(=O)N[C@H](C(=O)N[C@@H](CC(N)=O)C(=O)O)CSSC[C@H](NC(=O)[C@H](Cc1ccccc1)NC(=O)CN)C(=O)N[C@@H](Cc1c[nH]c3ccccc13)C(=O)N[C@@H](CC(N)=O)C(=O)N[C@@H](C(C)C)C(=O)N2 [compound 272] (H-GFCWNVCFYRNGVRVCHRRCN-OH; disulfide 3-20, 7-16)	0.26
CC(C)C[C@@H]1NC(=O)[C@@H]2CSSC[C@H](NC(=O)[C@H](C(C)C)NC(=O)[C@H](CCCNC(=N)N)NC(=O)[C@H](C(C)C)NC(=O)CNC(=O)[C@H](CC(N)=O)NC(=O)[C@H](CCCNC(=N)N)NC(=O)[C@H](Cc3ccc(O)cc3)NC1=O)C(=O)N[C@@H](Cc1c[nH]cn1)C(=O)N[C@@H](CCCNC(=N)N)C(=O)N[C@@H](CCCNC(=N)N)C(=O)N[C@H](C(=O)N[C@@H](CC(N)=O)C(=O)O)CSSC[C@H](NC(=O)[C@H](Cc1ccccc1)NC(=O)CN)C(=O)N[C@@H](Cc1c[nH]c3ccccc13)C(=O)N[C@@H](CC(N)=O)C(=O)N[C@@H](C(C)C)C(=O)N2 [compound 275] (H-GFCWNVCLYRNGVRVCHRRCN-OH; disulfide 3-20, 7-16 (inferred); N-terminus and C-terminus assumed)	0.2
CC(C)[C@@H]1NC(=O)CNC(=O)[C@H](CC(N)=O)NC(=O)[C@H](CCCNC(=N)N)NC(=O)[C@H](Cc2ccc(O)cc2)NC(=O)[C@H](C(C)C)NC(=O)[C@@H]2CSSC[C@H](NC(=O)[C@H](C(C)C)NC(=O)[C@H](CCCNC(=N)N)NC1=O)C(=O)N[C@@H](Cc1c[nH]cn1)C(=O)N[C@@H](CCCNC(=N)N)C(=O)N[C@@H](CCCNC(=N)N)C(=O)N[C@H](C(=O)NCC(=O)O)CSSC[C@H](NC(=O)[C@H](Cc1ccccc1)NC(=O)CN)C(=O)N[C@@H](Cc1c[nH]c3ccccc13)C(=O)N[C@@H](CC(N)=O)C(=O)N[C@@H](C(C)C)C(=O)N2 [compound 281] (H-GFCWNVCVYRNGVRVCHRRCG-OH; disulfide 3-20, 7-16 (inferred); N-terminus and C-terminus assumed)	0.34
CC(C)[C@@H]1NC(=O)CNC(=O)[C@H](CC(N)=O)NC(=O)[C@H](CCCNC(=N)N)NC(=O)[C@H](Cc2ccc(O)cc2)NC(=O)[C@H](C(C)C)NC(=O)[C@@H]2CSSC[C@H](NC(=O)[C@H](C(C)C)NC(=O)[C@H](CCCNC(=N)N)NC1=O)C(=O)N[C@@H](Cc1c[nH]cn1)C(=O)N[C@@H](CCCNC(=N)N)C(=O)N[C@@H](CCCNC(=N)N)C(=O)N[C@H](C(=O)N[C@@H](Cc1c[nH]cn1)C(=O)O)CSSC[C@H](NC(=O)[C@H](Cc1ccccc1)NC(=O)CN)C(=O)N[C@@H](Cc1c[nH]c3ccccc13)C(=O)N[C@@H](CC(N)=O)C(=O)N[C@@H](C(C)C)C(=O)N2 [compound 282] (H-GFCWNVCVYRNGVRVCHRRCH-OH; disulfide 3-20, 7-16 (inferred); N-terminus and C-terminus assumed)	0.18
